ChEMBL document CHEMBL1141520, “New cytotoxic saturated and unsaturated cyclohexanones from Anthemis maritima” (Bioorg Med Chem Lett, 2008)

Assays:
Type in all cases: functional, cell-based
HCT-116 = assay: Antiproliferative activity against human HCT116 cells after 72 hrs by WST1 based assay; conditions: HCT-116, 72 h
MCF7 = assay: Antiproliferative activity against human MCF7 cells after 72 hrs by WST1 based assay; conditions: MCF7, 72 h
Caco-2 = assay: Antiproliferative activity against human CaCo2 cells after 72 hrs by WST1 based assay; conditions: Caco-2, 72 h
U-937 = assay: Antiproliferative activity against human U937 cells after 72 hrs by WST1 based assay; conditions: U-937, 72 h
HL-60 = assay: Antiproliferative activity against human HL60 cells after 72 hrs by WST1 based assay; conditions: HL-60, 72 h
Jurkat = assay: Antiproliferative activity against human Jurkat T cells after 72 hrs by WST1 based assay

Row | IC50 (HCT-116) | IC50 (MCF7) | IC50 (Caco-2) | IC50 (U-937) | IC50 (HL-60) | IC50 (Jurkat) | SMILES
1 | 5.9 µM | 9.4 µM | 10.4 µM | 2.2 µM | 0.9 µM | 1.9 µM | C=C1C(=O)O[C@@H]2C3O[C@]3(C)CC/C=C(\C)CC[C@@H]12 (stereo partly drawn)
2 | 15 µM | 21 µM | 11 µM | 6.2 µM | 7.6 µM | 9 µM | CC(C)=CCCC(C)(O)[C@H]1CC(=O)C(CO)=C[C@@H]1O (stereo partly drawn) [ANTHEMINONE A]
3 | 19 µM | 15 µM | 9.4 µM | 7.4 µM | 3.2 µM | 8.4 µM | C=C1C(=O)C[C@@H](C(C)(O)CCC=C(C)C)[C@H](O)[C@H]1O (stereo partly drawn) [ANTHEMINONE C]
